Results on 58 compounds are retold here after the METLIN SMRT retention time set (Domingo-Almenara et al. 2019).

The nature of this data set: gradient 5% acetonitrile 3 min, to 50% in 2 min, to 85% in 15 min, held 3 min, 100 µL/min. To be noted: column: Zorbax Extend-C18 2.1 x 50 mm; eluents: water / acetonitrile, 0.1% formic acid. Summed up:
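The system's dead and dwell volumes were 40 μL and 900 μL, with a Zorbax Extend-C18 column (2.1 × 50 mm, 1.8 μm) run at 100 μL/min in water and acetonitrile containing 0.1% formic acid each. Pure standards were analyzed in mixtures of ~100 molecules by HPLC–quadrupole time-of-flight mass spectrometry in positive and negative ionization mode. Retention time was assigned from computationally picked, manually inspected adduct peaks.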
In turn, `CCC1CN2C=NC(N3CCN(S(=O)(=O)c4cc(Cl)ccc4OC)CC3)=CC2=N1` (stereo not drawn) displayed an RP-LC retention time of 705 s. With `O=C(NCc1ccccn1)C1CCN(c2cnn(Cc3ccccc3)c(=O)c2)CC1`, the RP-LC retention time is 615 s. Take `CCc1ccc(OCC(=O)N(Cc2ccc(Br)o2)C2CCS(=O)(=O)C2)cc1` (stereo not drawn): the RP-LC retention time came out at 963 s. The compound `COc1cc(NS(=O)(=O)c2c(C)nn(-c3ccc(-c4ccc(C)cc4)nn3)c2C)cc(OC)c1` yielded an RP-LC retention time of 1120 s. For the compound `Cc1ccc(C(=O)Nc2nc(-c3ccc4c(c3)N(C)C(=O)CO4)c(C)s2)cc1`, the RP-LC retention time was determined as 1030 s. `C[C@@H](NC(=O)c1ncnc(N)c1Cl)c1ncc(C(=O)Nc2cc(C(F)(F)F)c(Cl)cn2)s1` had an RP-LC retention time of 913 s. In the case of `Clc1ccccc1-c1nnc(-c2ccc(-n3ccnc3)nc2)o1` it was 658 s. For `CCc1ccc(N2C(=O)C3N=NN(Cc4nc(-c5cccc(C(F)(F)F)c5)no4)C3C2=O)cc1` (stereo not drawn), the RP-LC retention time worked out at 1130 s.

With `CCc1cccc(C)c1NS(=O)(=O)c1ccc(-c2c(C)noc2C)cc1`, the RP-LC retention time was found to be 1020 s.

In turn, `CCn1nccc1-c1cccc(-c2noc(-c3cccc(NC(=O)c4ccco4)c3)n2)c1` came in with an RP-LC retention time of 1080 s.

`O=C([C@@H]1C[C@H](Oc2ccccc2)CN1C(=O)c1n[nH]c(=O)c2ccccc12)N1CCCC1` returned an RP-LC retention time of 703 s. `CCC1Oc2ccc(S(=O)(=O)N3CCC(C(=O)N(C)Cc4ccco4)CC3)cc2NC1=O` (stereo not drawn) displayed an RP-LC retention time of 800 s. In the case of `O=C(NCC(=O)N1CCCc2ccccc21)c1ccc(Cl)cc1`, the RP-LC retention time came out at 835 s. `CCSc1nc2ccc(NS(=O)(=O)Cc3cc(F)cc(F)c3)cc2s1` yielded an RP-LC retention time of 1020 s. `CCOc1ccc(-c2csc(C)n2)cc1S(=O)(=O)N1CCN(c2ccc(OC)cc2)CC1` yielded an RP-LC retention time of 1060 s. Regarding `CN1C(=O)CSc2cnn(CC(=O)N3CCN(c4ccc(F)cc4)CC3)c(=O)c21`, the RP-LC retention time was 706 s. `Cc1c(C(=O)N2CCCCC2)cnn1-c1ccc(-c2nc(C3CC3)no2)cn1` returned an RP-LC retention time of 1010 s. Compound `O=C(CN1C(=O)CCS(=O)(=O)c2ccccc21)Nc1ccc(Cl)cc1` returned an RP-LC retention time of 797 s. As to `O=C(NCC1CCS(=O)(=O)C1)c1cccnc1` (stereo not drawn), the RP-LC retention time was 565 s. In the case of `COc1ccc(N2CCN(c3cc(SCC(=O)NCc4ccc(F)cc4)ncn3)CC2)cc1` it was 830 s; in that of `CC(C)(Cc1ccc2ccccc2c1)NC[C@@H](O)COc1cccc(Cl)c1C#N`, 857 s.

As to `CCCCOP(=O)(OCCCC)C1(C)CC(=O)CC(C)(C)C1` (stereo not drawn), the RP-LC retention time is 1100 s. As for `COc1ccc2[nH]cc(CCNC(=O)c3c(-c4cccnc4)noc3C)c2c1`, the RP-LC retention time stood at 667 s. On to `O=C(Cn1c(=O)c2cc(-c3cccs3)nn2c2ncccc21)NCc1ccc(F)cc1`, for which the RP-LC retention time is 821 s.

The compound `O=C(NCc1ccco1)N1CCc2nc(-c3ccc(F)cc3)ncc2C1` yielded an RP-LC retention time of 813 s. For the compound `O=C(Nc1nc2c(s1)COCC2)c1cccs1`, the RP-LC retention time amounted to 664 s. The compound `CS(=O)(=O)N1CCCC(C(=O)Nc2nccs2)C1` (stereo not drawn) returned an RP-LC retention time of 627 s.

`CCN1C(=O)c2cc(S(=O)(=O)Nc3cccc(C)c3C)ccc2Oc2cccnc21`: the RP-LC retention time was 1030 s. With `CCOC(=O)c1[nH]c(C)c(CCC(=O)N2CCC(C(=O)NCc3ccccc3OCC)CC2)c1C`, the RP-LC retention time was determined as 832 s. Turning to `O=C(CC1CCCCC1)Nc1ccc(-c2nnc3n2CCCC3)cc1`, the RP-LC retention time came to 719 s. In the case of `O=C(Cn1ccn2nc(-c3ccccc3)c(CO)c2c1=O)Nc1cc(Cl)cc(Cl)c1` it was 867 s. The compound `COc1ccccc1NC(=O)N1CCCC1c1c(C)noc1C` (stereo not drawn) yielded an RP-LC retention time of 797 s.

Regarding `CCn1ccc(C(=O)N2CCC(CC(=O)NC3CC3)C2)n1` (stereo not drawn), the RP-LC retention time came to 630 s. Regarding `COc1cccc(Cn2nc3ccc(S(=O)(=O)N4CCOCC4)cn3c2=O)c1`, the RP-LC retention time was determined as 783 s. `CCn1c(=O)c(N2CCN(C(=O)Nc3ccc(Br)cc3F)CC2)nc2ccccc21` yielded an RP-LC retention time of 1030 s. In turn, `CCc1nc2cc3c(cc2n1CC(=O)NC(C)c1ccccc1)OCCO3` (stereo not drawn) returned an RP-LC retention time of 651 s. With `COc1ccc(-n2nnc(-c3nc(-c4cc(OC)ccc4OC)cs3)c2N)cc1`, the RP-LC retention time was 1080 s. For `O=C(Nc1ccc(Br)cc1)C1CC(=O)N(c2n[nH]c3cccc(F)c23)C1` (stereo not drawn), the RP-LC retention time amounted to 782 s.

Turning to `COc1ccc(-c2nc(C(=O)N3CCN(C)CC3)sc2-c2ccc(OC)cc2)cc1`, the RP-LC retention time was found to be 748 s.

In the case of `Cc1ccccc1Nc1c(-c2ccc(Cl)cc2)nc2ccc(Br)cn12`, the RP-LC retention time was found to be 1090 s. As for `Cc1oc(C)c(S(=O)(=O)NC2CC2)c1C(=O)NCc1ccc2c(c1)OCO2`, the figure is 830 s; as for `CCn1nc(C)c(CCNC(=O)C(C)n2c3ccccc3c3cnn(C)c(=O)c32)c1C` (stereo not drawn), 656 s. On to `COCCC1CCN(C(=O)COc2ccc(Cl)cc2)CC1`, for which the RP-LC retention time amounted to 849 s.

The compound `COc1ccc(NC(=O)CSc2nnc3c4cc(-c5ccc(C)c(C)c5)nn4ccn23)cc1Cl` came in with an RP-LC retention time of 997 s. Consider `CC1CCCCN1S(=O)(=O)c1ccc2nc(N3CCN(c4ccccc4)CC3)ccc2c1` (stereo not drawn), for which the RP-LC retention time worked out at 1100 s. In turn, `COc1ccc(C(O)CN2CCN(c3ccc(C)cc3)CC2)cc1OC` (stereo not drawn) showed an RP-LC retention time of 644 s. Compound `CC(C)C(=O)Nc1ccc(-n2cnc(C(=O)N3CCCCCC3)c2)nc1` displayed an RP-LC retention time of 710 s. `O=C(CCc1ccccc1)Nc1nnc(SCC(=O)c2ccccc2)s1` returned an RP-LC retention time of 892 s.

In turn, `COc1ccc(F)cc1S(=O)(=O)N1C[C@@H](F)C[C@H]1C(=O)N1CCc2ccccc2C1` returned an RP-LC retention time of 881 s. In turn, `COc1cccc(NC(=O)NCc2cc(C)oc2C)c1OC` registered an RP-LC retention time of 815 s.

The compound `O=C(NC1CCN(c2cc(-c3ccc(Cl)cc3)[nH]n2)C1)c1ccncc1` (stereo not drawn) returned an RP-LC retention time of 643 s.

As for `Cc1c(C(=O)NC2CC2)cnn1-c1ccc(-c2nc(C(C)(C)C)no2)cn1`, the RP-LC retention time was 947 s. Consider `O=C(Nc1ccccc1Cl)N1CCCC1c1nc(-c2ccc(F)cc2F)no1` (stereo not drawn), for which the RP-LC retention time is 1040 s. Compound `COc1ccc(N2CC(c3nc(-c4ccccc4F)no3)CC2=O)c(OC)c1` (stereo not drawn) displayed an RP-LC retention time of 863 s. `COc1ccc2sc(N(CCN(C)C)C(=O)Cc3ccccc3)nc2c1` came in with an RP-LC retention time of 601 s. In the case of `Cc1ccc2c(=O)c3c([nH]c2c1C)CCN(CC(=O)Nc1ccc(F)c(Cl)c1)C3` it was 665 s; in that of `O=C(NCc1cccs1)C1CCN(S(=O)(=O)c2cc(-c3noc(C4CC4)n3)cs2)CC1`, 910 s; in that of `COCCCNC(=O)c1ccc(OCc2nnc(C(=O)Nc3ccccc3F)s2)cc1`, 806 s.
